Source: US20210300900A1, “OGA INHIBITOR COMPOUNDS” (Janssen Pharmaceutica NV, priority 2018, published 2021)

Biological target: T1, recombinant human Meningioma Expressed Antigen 5 (MGEA5), also referred to as O-GcNAcase (OGA) (Homo sapiens, UniProt O60502)
T1 construct: Full length OGA enzyme was purchased at OnGene (cat #TP322411); purchased OnGene (so in the source)
T1 sequence (O60502 1-916): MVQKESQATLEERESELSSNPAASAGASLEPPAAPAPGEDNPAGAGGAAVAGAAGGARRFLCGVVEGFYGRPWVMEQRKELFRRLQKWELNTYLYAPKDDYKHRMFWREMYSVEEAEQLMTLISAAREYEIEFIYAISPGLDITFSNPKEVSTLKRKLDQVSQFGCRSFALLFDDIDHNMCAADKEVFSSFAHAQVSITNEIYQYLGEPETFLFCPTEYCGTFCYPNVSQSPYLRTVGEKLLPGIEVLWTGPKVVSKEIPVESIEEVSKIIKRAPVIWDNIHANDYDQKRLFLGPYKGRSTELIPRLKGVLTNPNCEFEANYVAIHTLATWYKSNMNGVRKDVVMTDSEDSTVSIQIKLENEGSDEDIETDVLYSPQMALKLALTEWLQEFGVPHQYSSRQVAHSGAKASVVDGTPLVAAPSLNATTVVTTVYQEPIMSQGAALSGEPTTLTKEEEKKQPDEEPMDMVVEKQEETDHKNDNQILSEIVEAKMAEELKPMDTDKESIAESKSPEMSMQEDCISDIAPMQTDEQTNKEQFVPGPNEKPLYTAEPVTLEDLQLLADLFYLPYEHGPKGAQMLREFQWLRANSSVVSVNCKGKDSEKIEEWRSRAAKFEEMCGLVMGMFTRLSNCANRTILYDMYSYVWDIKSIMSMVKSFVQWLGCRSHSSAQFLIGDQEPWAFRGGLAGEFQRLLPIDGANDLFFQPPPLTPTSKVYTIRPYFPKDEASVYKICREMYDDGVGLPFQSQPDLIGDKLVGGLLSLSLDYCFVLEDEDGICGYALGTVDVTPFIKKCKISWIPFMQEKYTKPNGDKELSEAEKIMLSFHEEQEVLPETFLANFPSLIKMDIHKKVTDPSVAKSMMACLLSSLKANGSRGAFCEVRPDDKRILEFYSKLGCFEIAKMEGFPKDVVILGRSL
Experiment: OGA biochemical assay (inhibition of FM-GlcNAc hydrolysis, fluorescence)
Conditions: FM-GlcNAc substrate; for Emax: read-out: Enzymatic Emax (%); for IC50: read-out: Enzymatic hOGA, pIC50 (converted)
Description: The assay is based on the inhibition of the hydrolysis of fluorescein mono-β-D-N-Acetyl-Glucosamine (FM-GlcNAc) (Mariappa et al. 2015, Biochem J 470:255) by the recombinant human Meningioma Expressed Antigen 5 (MGEA5), also referred to as O-GcNAcase (OGA). The hydrolysis FM-GlcNAc (Marker Gene technologies, cat #M1485) results in the formation of B-D-N-glucosamineacetate and fluorescein. The fluorescence of the latter can be measured at excitation wavelength 485 nm and emission wavelength 538 nm. An increase in enzyme activity results in an increase in fluorescence signal. Full length OGA enzyme was purchased at OnGene (cat #TP322411). The enzyme was stored in 25 mM Tris.HCl, pH 7.3, 100 mM glycine, 10% glycerol at −20° C. Thiamet G and GlcNAcStatin were tested as reference compounds (Yuzwa et al. 2008 Nature Chemical Biology 4:483; Yuzwa et al. 2012 Nature Chemical Biology 8:393). The assay was performed in 200 mM Citrate/phosphate buffer supplemented with 0.005% Tween-20. 35.6 g Na2HPO4 2H2O (Sigma, #C0759) were dissolved in 1 L water to obtain a 200 mM solution. 19.2 g citric acid (Merck, #1.06580) was dissolved in 1 L water to obtain a 100 mM solution. pH of the sodiumphosphate solution was adjusted with the citric acid solution to 7.2. The buffer to stop the reaction consists of a 500 mM Carbonate buffer, pH 11.0. 734 mg FM-GlcNAc were dissolved in 5.48 mL DMSO to obtain a 250 mM solution and was stored at −20° C. OGA was used at a 2 nM concentration and FM-GlcNAc at a 100 uM final concentration. Dilutions were prepared in assay buffer.
50 nl of a compound dissolved in DMSO was dispensed on Black Proxiplate TM 384 Plus Assay plates (Perkin Elmer, #6008269) and 3 μl fl-OGA enzyme mix added subsequently. Plates were pre-incubated for 60 min at room temperature and then 2 μl FM-GlcNAc substrate mix added. […] Plates were briefly centrifuged for 1 min at 1000 rpm and incubate at room temperature for 6 h. To stop the reaction 5 μl STOP buffer were added and plates centrifuge again 1 min at 1000 rpm. Fluorescence was quantified in the Thermo Scientific Fluoroskan Ascent or the PerkinElmer EnVision with excitation wavelength 485 nm and emission wavelength 538 nm.
For analysis a best-fit curve is fitted by a minimum sum of squares method. From this an IC50 value and Hill coefficient was obtained. High control (no inhibitor) and low control (saturating concentrations of standard inhibitor) were used to define the minimum and maximum values.

Row | SMILES | Enzymatic Emax (%) | Enzymatic hOGA; pIC50 | Emax [%] | IC50 [µM]
1 | COc1cccc([C@@H](C)N2CCC[C@H](Cc3cc(C)nc(C)c3)C2)n1 [Product 46] | 12 | <5 |  | 
2 | CC(=O)Nc1nc(CN2CCC[C@H](Cc3cc(C)nc(C)c3)C2)c[nH]1 [Product 135] |  |  | 98 | 0.49
3 | CCOc1cc(C[C@@H]2CCN(C(C)c3c[nH]c(OCC)n3)C2)ccn1 (mixture of isomers) [Product 164] |  |  | 26 | > 10
4 | COc1ncc(C(C)N2CCC[C@H](Cc3cc(C)nc(C)c3)C2)cc1F (mixture of isomers) [Product 45] |  |  | 92 | 0.955
5 | CCOc1cccc([C@@H](C)N2CCC[C@H](Cc3cc(C)nc(C)c3)C2)n1 [Product 51] | 102 | 7.01 |  | 
6 | COc1cccc(C[C@H]2CCN(C(C)c3cccc(OC)n3)C2)n1 (mixture of isomers) [Product 149] |  |  | 30.3 | > 10
7 | CC(=O)Nc1cc(C(C)N2CC[C@@H](Cc3cc(C)nc(C)c3)C2)n[nH]1 (some centres unmarked) [Product 97] |  |  | 94 | 0.575
8 | COc1cccc(C(C)N2CCC[C@H](Cc3cc(OC)nc(C(F)(F)F)c3)C2)n1 (mixture of isomers) [Product 78] |  |  | 101 | 0.355
9 | CC(=O)Nc1cc(CN2CCC[C@H](Cc3cc(C)nc(C)c3)C2)cnn1 [Product 62] |  |  | 94 | 0.513
10 | Cc1cc(C[C@H]2CCCN([C@@H](C)c3cccc(C4CC4)n3)C2)cc(C)n1 [Product 60] | 88 | 5.81 |  | 
11 | Cc1cc(C[C@H]2CCCN(Cc3c[nH]c(C)n3)C2)cc(C)n1 [Product 25] |  |  | 82 | 3.02
12 | COc1cc(C(C)N2CC[C@@H](Cc3cc(C)nc(OC)c3)C2)c(F)cn1 (mixture of isomers) [Product 102] |  |  | 85 | 1.7
13 | CC(=O)Nc1ccnc(C(C)N2CCC[C@H](Cc3cc(C)nc(C)c3)C2)c1 (some centres unmarked) [Product 32] |  |  | 95 | 0.49

Now from value to molecule:

Row | Enzymatic Emax (%) | Enzymatic hOGA; pIC50 | Emax [%] | IC50 [µM] | SMILES
14 |  |  | 96 | 0.245 | CCOc1cc(C(C)N2CCC[C@H](Cc3cc(C)nc(C)c3)C2)n(C)n1 (mixture of isomers) [Product 17]
15 |  |  | 86 | 1.26 | COc1cc(C(C)N2CCC[C@H](Cc3cc(C)nc(C)c3)C2)on1 (mixture of isomers) [Product 29]
16 |  |  | 81 | 2.45 | CC(=O)Nc1cc(C(C)N2CCCC(Oc3cc(C)nc(C(F)(F)F)c3)C2)n[nH]1 (centres unmarked) [Product 138]
17 |  |  | 98 | 0.229 | COc1ccc(C(C)N2CCC[C@H](Cc3cc(C)nc(C)c3)C2)cn1 (mixture of isomers) [Product 52]
18 |  |  | 92 | 1.23 | CC(=O)Nc1cc(CN2CCCC(COc3cc(C)nc(C)c3)C2)n[nH]1 (centres unmarked) [Product 119]
19 |  |  | 76 | 4.17 | CCOc1cc(C[C@H]2CCN(C(C)c3cccc(OC)n3)C2)ccn1 (mixture of isomers) [Product 125]
20 |  |  | 98 | 0.759 | CCOc1cnc(C(C)N2CC[C@@H](Cc3cc(C)nc(OC)c3)C2)o1 (mixture of isomers) [Product 133]
21 |  |  | 103 | 0.0603 | CC(=O)Nc1cc(C(C)N2CCCC(CNc3cc(C)nc(C)c3)C2)[nH]n1 (centres unmarked) [Product 83]
22 |  |  | 24 | > 10 | Cc1cc(C[C@H]2CCCN(Cc3cnc(C4CC4)[nH]3)C2)cc(C)n1 [Product 165]
23 |  |  | 97 | 0.38 | COc1cc(C[C@@H]2CCN(C(C)c3cc(NC(C)=O)[nH]n3)C2)cc(C)n1 (mixture of isomers) [Product 131]
24 | 74 | 5.31 |  |  | COc1cccc([C@@H](C)N2CCC[C@H](CNc3cc(C)nc(C(F)(F)F)c3)C2)n1 [Product 92]
25 |  |  | 74 | 3.89 | COc1ccc(F)c(C(C)N2CC[C@H](Cc3ncc(C)nc3C)C2)n1 (some centres unmarked) [Product 113]
